{"source": "patent US20120064174A1", "about": "“METHOD FOR STIMULATING HAIR GROWTH” (LEGACY HEALTHCARE HOLDING LTD., priority 2010, published 2012)", "tested_on": "scalp of male volunteers", "assay": "Double-blind placebo-controlled clinical study, hair diameter measurement by hair clipping", "type": "in vivo, human", "conditions": "after 32-51 days of treatment, one volunteer per row", "experimental": "[…] The male volunteers had been under treatment of a 5-alpha-reductase inhibitor treatment (Finasteride 1 mg) started within the last 3 months, or for the last three years. The first objective is to assess if the hair diameter of volunteers under a 5-alpha-reductase inhibitor (Finasteride 1 mg) and Cellium (TRADEMARK) GC 210 mg/mL is higher than on volunteers under a 5-alpha-reductase inhibitor (Finasteride 1 mg) and placebo only. The hair diameters were compared using a starting or initial hair diameter measurement and a post-study hair diameter measurement as quantified later herein. The second objective is to evaluate the cosmetic acceptance in the studied population. A prospective, double-blind, monocentric, randomized testing along with a placebo testing is conducted with two parallel groups. […] Information on self-assessed effectiveness, appreciation, and overall satisfaction was solicited from volunteers using a questionnaire. […] Exemplary secondary criteria include photographic documentation for qualitative purposes and also self-assessed effectiveness, appreciation, and overall satisfaction as indicated by a questionnaire given to participants. […]", "note": "“And” between values parts separate entries of the source, which are not always exact repeats. Equal entries are not always repeated."}
{"smiles": "CC(C)(C)NC(=O)[C@H]1CC[C@H]2[C@@H]3CC[C@H]4NC(=O)C=C[C@]4(C)[C@H]3CC[C@]12C", "note": "[Finasteride + Placebo, Finasteride]", "values": [{"measurement": "Variation of diameter (in %)", "setting": "relative to first diameter", "value": "4.4% and −0.7% and −2.4%"}, {"measurement": "Variation of diameter (μm)", "setting": "second minus first diameter", "value": "2.2 μm and −0.3 μm and −1.2 μm"}]}
